These results are taken from patent publication US20260355212A1 (priority 2022, published 2026).

Like-named read-outs stand apart in the source and are kept apart here.

For one experiment, the target named is SARS-CoV-1 Mpro (Severe acute respiratory syndrome coronavirus, UniProt P0C6X7). Put plainly: biochemical.
In another experiment the target is HCoV-NL63 Mpro (Human coronavirus NL63, UniProt P0C6X5). Briefly: HCoV-NL63 Mpro enzymatic inhibition assay (fluorescence). It is filed as biochemical. On the procedure:
(§1) The hCoV Mpro are cloned, expressed in E. coli and purified by WuXi AppTec Co., Ltd. The substrate are synthesized by Genscript Biotech.
(§2) Compounds are 3 fold serially diluted for 10 doses and added to an assay plate (384w format) using ECHO, in duplicate wells. The test concentration of test compounds is defined by sponsor. […] For no inhibition control (ZPE, zero percent effect), DMSO is added.
(§3) 25 μL of Mpro proteins are added to the assay plates containing compounds, respectively, using Multidrop. The compounds and Mpro proteins are pre-incubated at room temperature for 30 min. Then 5 µL of Mpro substrates are added to the related assay plates, respectively. Each activity testing point has a relevant background control to normalize the fluorescence interference of compound.
(§4) After 60 min incubation at 30° C., the fluorescence signal (RFU) is detected using a microplate reader M2e (SpectraMax) at Ex/Em=340 nm/490 nm.
(§5) The inhibition activity is calculated using the formula below, IC50 values will be calculated using the Inhibition % data.
(§6) Inhibition %=[(CPD−BGCPD)−(ZPE−BGZPE)/(HPE−BGHPE)−(ZPE−BGZPE)]×[…] • CPD: Signal of test compounds wells, containing compound+enzyme+substrate. • ZPE: Average of signals of zero percent effective control wells, containing enzyme+substrate, no compound. • HPE: Average of signals of hundred percent effect control wells, containing GC376+enzyme+substrate. • BG: Compound background control wells, containing compound+substrate, no enzyme
(§7) IC50 values of compounds are calculated with the GraphPad Prism software using the nonlinear regression model of log(inhibitor) vs. response—Variable slope (four parameters).

In the next experiment the target is HCoV-HKU1 Mpro (Human coronavirus HKU1, UniProt P0C6X2). Briefly: HCoV-HKU1 Mpro enzymatic inhibition assay (fluorescence). In kind it is biochemical. As for the experimental part:
as §1, §2, §3, §4, §5, §6, §7

Another experiment has as its target HCoV-OC43 Mpro (Human coronavirus OC43, UniProt P0C6X6). Put plainly: HCoV-OC43 Mpro enzymatic inhibition assay (fluorescence). It is filed as biochemical. On the procedure:
as §1, §2, §3, §4, §5, §6, §7

Another experiment addresses SARS-CoV-2 Mpro (Severe acute respiratory syndrome coronavirus 2, UniProt P0DTD1). Put plainly: SARS-CoV-2 Mpro enzymatic inhibition assay (fluorescence). In kind it is biochemical. As for the experimental part:
as §1
Compounds are 3 fold serially diluted for 10 doses and added to an assay plate (384w format) using ECHO, in duplicate wells. The test concentration of test compounds is defined by sponsor.
25 μL of Mpro proteins are added to the assay plates containing compounds, respectively, using Multidrop. The compounds and Mpro proteins are pre-incubated at room temperature for 30 min. Then 5 µL of Mpro substrates are added to the related assay plates, respectively.
as §4, §5, §7

Another experiment concerns the target HCoV-229E Mpro (Human coronavirus 229E, UniProt P0C6X1). Put plainly: HCoV-229E Mpro enzymatic inhibition assay (fluorescence). In kind it is biochemical. On the procedure:
as §1, §2, §3, §4, §5, §6, §7

For another experiment, the target named is MERS Mpro (Middle East respiratory syndrome-related coronavirus, UniProt K9N7C7). Briefly: biochemical. Set-up: species or system MERS-CoV.
Setting [1] is: mean, 25 nM protein, 25 μM substrate, 30 min pre-incubation, 60 min at 30° C., read-out: Mpro_SARS-CoV-2 mean IC50.

Sequence of HCoV-OC43 Mpro (P0C6X6 3247-3549 limits assumed): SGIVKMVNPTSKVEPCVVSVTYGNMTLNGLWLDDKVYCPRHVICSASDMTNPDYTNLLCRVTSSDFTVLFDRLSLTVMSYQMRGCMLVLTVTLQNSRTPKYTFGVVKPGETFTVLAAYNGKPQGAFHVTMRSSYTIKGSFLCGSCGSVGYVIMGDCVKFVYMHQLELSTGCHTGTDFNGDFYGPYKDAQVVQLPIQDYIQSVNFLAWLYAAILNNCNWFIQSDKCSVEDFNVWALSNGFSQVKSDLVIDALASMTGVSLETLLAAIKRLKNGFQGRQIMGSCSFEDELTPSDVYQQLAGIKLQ
Sequence of HCoV-229E Mpro (P0C6X1 2966-3267 limits assumed): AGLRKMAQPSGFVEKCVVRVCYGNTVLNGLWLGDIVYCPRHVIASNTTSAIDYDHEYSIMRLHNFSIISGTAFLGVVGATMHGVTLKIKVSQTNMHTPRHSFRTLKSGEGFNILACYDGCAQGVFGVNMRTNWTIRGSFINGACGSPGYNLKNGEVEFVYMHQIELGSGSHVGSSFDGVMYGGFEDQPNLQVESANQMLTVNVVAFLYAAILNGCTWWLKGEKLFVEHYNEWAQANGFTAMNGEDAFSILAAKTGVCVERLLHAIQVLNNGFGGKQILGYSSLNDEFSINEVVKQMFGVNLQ
Sequence of MERS Mpro (K9N7C7 3248-3553 limits assumed): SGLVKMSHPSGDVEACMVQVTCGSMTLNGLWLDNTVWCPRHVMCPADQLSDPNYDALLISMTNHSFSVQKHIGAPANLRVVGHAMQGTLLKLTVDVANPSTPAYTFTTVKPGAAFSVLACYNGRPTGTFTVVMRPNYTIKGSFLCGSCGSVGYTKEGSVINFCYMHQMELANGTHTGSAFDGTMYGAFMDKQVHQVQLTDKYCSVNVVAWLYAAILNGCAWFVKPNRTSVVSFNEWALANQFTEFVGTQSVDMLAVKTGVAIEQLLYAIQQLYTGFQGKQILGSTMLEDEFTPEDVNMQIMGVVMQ
Sequence of HCoV-NL63 Mpro (P0C6X5 2940-3242 limits assumed): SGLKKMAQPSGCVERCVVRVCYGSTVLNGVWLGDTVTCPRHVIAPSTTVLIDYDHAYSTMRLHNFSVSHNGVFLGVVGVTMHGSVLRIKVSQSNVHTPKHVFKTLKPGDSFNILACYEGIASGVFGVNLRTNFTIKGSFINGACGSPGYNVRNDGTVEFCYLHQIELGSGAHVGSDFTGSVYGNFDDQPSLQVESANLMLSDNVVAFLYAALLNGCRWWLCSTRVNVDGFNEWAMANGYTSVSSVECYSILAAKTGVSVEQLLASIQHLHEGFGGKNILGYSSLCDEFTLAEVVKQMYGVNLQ
Sequence of HCoV-HKU1 Mpro (P0C6X2 3335-3637 limits assumed): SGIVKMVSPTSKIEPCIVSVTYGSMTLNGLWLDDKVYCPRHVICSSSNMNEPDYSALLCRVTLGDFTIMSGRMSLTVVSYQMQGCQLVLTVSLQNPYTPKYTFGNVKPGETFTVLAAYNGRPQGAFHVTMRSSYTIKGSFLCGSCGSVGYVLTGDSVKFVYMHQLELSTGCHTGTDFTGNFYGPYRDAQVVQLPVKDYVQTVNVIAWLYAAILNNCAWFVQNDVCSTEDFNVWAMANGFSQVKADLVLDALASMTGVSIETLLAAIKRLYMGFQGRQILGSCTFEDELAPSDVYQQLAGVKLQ

Consider `COc1cccc2cc(C(=O)N3C[C@H]4[C@@H]([C@H]3C(=O)N[C@H](C=O)C[C@@H]3CCNC3=O)C4(C)C)[nH]c12` [Compound 91, (1R,2S,5S)-3-(7-Methoxy-1H-indole-2-carbonyl)-6,6-dimethyl-N—((S)-1-oxo-3-((S)-2-oxopyrrolidin-3-yl)propan-2-yl)-3-azabicyclo[3.1.0]hexane-2-carboxamide], for which the IC50 against SARS-CoV-1 Mpro is 83.3 nM; at HCoV-NL63 Mpro, 215 nM; on HCoV-HKU1 Mpro, 61.1 nM; on HCoV-OC43 Mpro it was 110 nM; at SARS-CoV-2 Mpro (setting [1]), 43.9 nM; against HCoV-229E Mpro, 92.9 nM. At MERS Mpro, this molecule returned an IC50 of 396 nM.

As for `N#C[C@@H]1C[C@@H](C(=O)N[C@H](C=O)C[C@@H]2CCNC2=O)N(C(=O)c2cc3ccccc3[nH]2)C1` [Compound 112, (2S,4R)-4-Cyano-1-(1H-indole-2-carbonyl)-N—((S)-1-oxo-3-((S)-2-oxopyrrolidin-3-yl)propan-2-yl)pyrrolidine-2-carboxamide], the IC50 against SARS-CoV-1 Mpro came out at 244 nM; against HCoV-NL63 Mpro, 503 nM; against HCoV-HKU1 Mpro, 120 nM; at HCoV-OC43 Mpro it was 390 nM; at SARS-CoV-2 Mpro it was 84.6 nM; against HCoV-229E Mpro, 149 nM. At MERS Mpro, inhibition was half-maximal at 2760 nM (IC50).

Consider `CC1(C)[C@@H]2[C@@H](C(=O)N[C@H](C=O)C[C@@H]3CCCNC3=O)N(C(=O)c3cc4cccc(Cl)c4[nH]3)C[C@@H]21` [Compound 25, (1R,2S,5S)-3-(7-chloro-1H-indole-2-carbonyl)-6,6-dimethyl-N—((S)-1-oxo-3-((S)-2-oxopiperidin-3-yl)propan-2-yl)-3-azabicyclo[3.1.0]hexane-2-carboxamide], for which the IC50 against SARS-CoV-1 Mpro was 24 nM; on HCoV-NL63 Mpro, 53.8 nM; against HCoV-HKU1 Mpro, 30.2 nM; at HCoV-OC43 Mpro, 43 nM; at SARS-CoV-2 Mpro, 16.7 nM; at HCoV-229E Mpro, 33.8 nM. The molecule further displayed an IC50 at MERS Mpro of 140 nM.

As to `CC1(C)[C@@H]2[C@@H](C(=O)N[C@H](C=O)C[C@@H]3CCNC3=O)N(C(=O)c3cc4cccc(C(F)(F)F)c4[nH]3)C[C@@H]21` [Compound 29, (1R,2S,5S)-6,6-dimethyl-N—((S)-1-oxo-3-((S)-2-oxopyrrolidin-3-yl)propan-2-yl)-3-(7-(trifluoromethyl)-1H-indole-2-carbonyl)-3-azabicyclo[3.1.0]hexane-2-carboxamide], the IC50 at SARS-CoV-1 Mpro amounted to 35.2 nM; against HCoV-NL63 Mpro it was 93.9 nM; at HCoV-HKU1 Mpro, 53.5 nM; on HCoV-OC43 Mpro, 87 nM; against SARS-CoV-2 Mpro, 18.3 nM; against HCoV-229E Mpro, 47.4 nM. Further, the IC50 against MERS Mpro came to 296 nM.

In the case of `CC(C)(C(=O)N1C[C@H]2[C@@H]([C@H]1C(=O)N[C@H](C=O)C[C@@H]1CCNC1=O)C2(C)C)c1ccccc1` [Compound 48, (1R,2S,5S)-6,6-dimethyl-3-(2-methyl-2-phenylpropanoyl)-N—((S)-1-oxo-3-((S)-2-oxopyrrolidin-3-yl)propan-2-yl)-3-azabicyclo[3.1.0]hexane-2-carboxamide], the IC50 on SARS-CoV-1 Mpro was found to be 53.6 nM; against HCoV-NL63 Mpro, 376 nM; against HCoV-HKU1 Mpro, 73.4 nM; on HCoV-OC43 Mpro, 164 nM; on SARS-CoV-2 Mpro (setting [1]), 22.9 nM; against HCoV-229E Mpro it was 86.9 nM. The same molecule returned an IC50 against MERS Mpro of 484 nM.

For the molecule `CC1(C)[C@@H]2[C@@H](C(=O)N[C@H](C=O)C[C@@H]3CCNC3=O)N(C(=O)C3(c4cccc(Cl)c4)CC3)C[C@@H]21` [Compound 8, (1R,2S,5S)-3-(1-(3-chlorophenyl)cyclopropanecarbonyl)-6,6-dimethyl-N—((S)-1-oxo-3-((S)-2-oxopyrrolidin-3-yl)propan-2-yl)-3-azabicyclo[3.1.0]hexane-2-carboxamide], the IC50 was 11.9 nM against SARS-CoV-1 Mpro; 37.6 nM at HCoV-NL63 Mpro; 7.74 nM against HCoV-HKU1 Mpro; 18.9 nM against HCoV-OC43 Mpro; 11.3 nM against SARS-CoV-2 Mpro; 21.8 nM against HCoV-229E Mpro. In addition, on MERS Mpro, the IC50 was 88.7 nM.

Turning to `CC1(C)[C@@H]2[C@@H](C(=O)N[C@H](C=O)C[C@@H]3CCNC3=O)N(C(=O)CN3CCCCCC3)C[C@@H]21` [Compound 55, (1R,2S,5S)-3-(2-(Azepan-1-yl)acetyl)-6,6-dimethyl-N—((S)-1-oxo-3-((S)-2-oxopyrrolidin-3-yl)propan-2-yl)-3-azabicyclo[3.1.0]hexane-2-carboxamide], the IC50 against SARS-CoV-1 Mpro is 74.6 nM; on HCoV-NL63 Mpro, 70.2 nM; at HCoV-HKU1 Mpro, 54.8 nM; on HCoV-OC43 Mpro, 81 nM; against SARS-CoV-2 Mpro it was 25.5 nM; on HCoV-229E Mpro it was 39.3 nM. Moreover, the IC50 on MERS Mpro was 317 nM.

Take `CC(C)(C)[C@H](NC(=O)C(F)(F)F)C(=O)N1C[C@H]2[C@@H]([C@H]1C(=O)N[C@H](C=O)C[C@@H]1CCNC1=O)C2(C)C` [Compound 12, (1R,2S,5S)-3-((S)-3,3-dimethyl-2-(2,2,2-trifluoroacetamido)butanoyl)-6,6-dimethyl-N—((S)-1-oxo-3-((S)-2-oxopyrrolidin-3-yl)propan-2-yl)-3-azabicyclo[3.1.0]hexane-2-carboxamide]: the IC50 at SARS-CoV-1 Mpro is 21.2 nM; at HCoV-NL63 Mpro, 53.9 nM; against HCoV-HKU1 Mpro, 15 nM; against HCoV-OC43 Mpro, 37 nM; at HCoV-229E Mpro, 33.8 nM; against MERS Mpro, 175 nM.

Take `O=C[C@H](C[C@@H]1CCNC1=O)NC(=O)[C@@H]1[C@H]2CCC[C@H]2CN1C(=O)COc1ccc(Cl)cc1Cl` [Compound 63, (1S,3aR,6aS)-2-(2-(2,4-Dichlorophenoxy)acetyl)-N—((S)-1-oxo-3-((S)-2-oxopyrrolidin-3-yl)propan-2-yl)octahydrocyclopenta[c]pyrrole-1-carboxamide]: the IC50 on SARS-CoV-1 Mpro is 32.1 nM; against HCoV-NL63 Mpro, 105 nM; at HCoV-HKU1 Mpro, 39.7 nM; on HCoV-OC43 Mpro, 66.8 nM; against HCoV-229E Mpro it was 53.8 nM; at MERS Mpro, 382 nM.

With `CC(C)(C)NC(=O)N[C@H](C(=O)N1C[C@H]2[C@@H]([C@H]1C(=O)N[C@@H](C[C@@H]1CCNC1=O)C(=O)C(N)=O)C2(C)C)C(C)(C)C` [Compound 50, (1R, 2S, 5S)—N—((S)-4-amino-3,4-dioxo-1-((S)-2-oxopyrrolidin-3-yl)butan-2-yl)-3-((S)-2-(3-(tert-butyl)ureido)-3,3-dimethylbutanoyl)-6,6-dimethyl-3-azabicyclo[3.1.0]hexane-2-carboxamide], the IC50 against SARS-CoV-1 Mpro is 46.9 nM; against HCoV-NL63 Mpro, 256 nM; against HCoV-HKU1 Mpro it was 34.2 nM; against HCoV-OC43 Mpro it was 171 nM; against HCoV-229E Mpro, 130 nM; against MERS Mpro, 621 nM.

As for `CC1(C)[C@@H]2[C@@H](C(=O)N[C@H](C=O)C[C@@H]3CCNC3=O)N(C(=O)CC3CCCCC3)C[C@@H]21` [Compound 54, (1R,2S,5S)-3-(2-Cyclohexylacetyl)-6,6-dimethyl-N—((S)-1-oxo-3-((S)-2-oxopyrrolidin-3-yl)propan-2-yl)-3-azabicyclo[3.1.0]hexane-2-carboxamide], the IC50 worked out at 37.8 nM on SARS-CoV-1 Mpro (read-out: Mpro_SARS-CoV-1 mean IC50, mean, 25 nM protein (SARS_Mpro), 25 μM substrate, 30 min pre-incubation, 60 min at 30° C.); 42.6 nM on HCoV-NL63 Mpro (read-out: Mpro_NL63 mean IC50, mean, 50 nM protein, 12.5 μM substrate, 30 min pre-incubation, 60 min at 30° C.); 18.8 nM at HCoV-HKU1 Mpro (read-out: Mpro_HKU1 mean IC50, mean, 12.5 nM protein, 12.5 μM substrate, 30 min pre-incubation, 60 min at 30° C.); 56.7 nM on HCoV-OC43 Mpro (read-out: Mpro_OC43 mean IC50, mean, 25 nM protein, 12.5 μM substrate, 30 min pre-incubation, 60 min at 30° C.); 36.4 nM at HCoV-229E Mpro (read-out: Mpro_229E mean IC50, mean, 50 nM protein, 12.5 μM substrate, 30 min pre-incubation, 60 min at 30° C.); 285 nM on MERS Mpro (read-out: Mpro_MERS mean IC50, mean, 100 nM protein, 25 μM substrate, 30 min pre-incubation, 60 min at 30° C.).
